{"source": "ChEMBL document CHEMBL1127073", "about": "“(+)-Hemipalmitoylcarnitinium strongly inhibits carnitine palmitoyltransferase-I in intact mitochondria” (J Med Chem, 1993)", "key": {"[1]": {"biological_target": "T1, Carnitine O-palmitoyltransferase 1, liver isoform (Rattus norvegicus, UniProt P32198)", "T1 sequence (P32198 whole entry)": "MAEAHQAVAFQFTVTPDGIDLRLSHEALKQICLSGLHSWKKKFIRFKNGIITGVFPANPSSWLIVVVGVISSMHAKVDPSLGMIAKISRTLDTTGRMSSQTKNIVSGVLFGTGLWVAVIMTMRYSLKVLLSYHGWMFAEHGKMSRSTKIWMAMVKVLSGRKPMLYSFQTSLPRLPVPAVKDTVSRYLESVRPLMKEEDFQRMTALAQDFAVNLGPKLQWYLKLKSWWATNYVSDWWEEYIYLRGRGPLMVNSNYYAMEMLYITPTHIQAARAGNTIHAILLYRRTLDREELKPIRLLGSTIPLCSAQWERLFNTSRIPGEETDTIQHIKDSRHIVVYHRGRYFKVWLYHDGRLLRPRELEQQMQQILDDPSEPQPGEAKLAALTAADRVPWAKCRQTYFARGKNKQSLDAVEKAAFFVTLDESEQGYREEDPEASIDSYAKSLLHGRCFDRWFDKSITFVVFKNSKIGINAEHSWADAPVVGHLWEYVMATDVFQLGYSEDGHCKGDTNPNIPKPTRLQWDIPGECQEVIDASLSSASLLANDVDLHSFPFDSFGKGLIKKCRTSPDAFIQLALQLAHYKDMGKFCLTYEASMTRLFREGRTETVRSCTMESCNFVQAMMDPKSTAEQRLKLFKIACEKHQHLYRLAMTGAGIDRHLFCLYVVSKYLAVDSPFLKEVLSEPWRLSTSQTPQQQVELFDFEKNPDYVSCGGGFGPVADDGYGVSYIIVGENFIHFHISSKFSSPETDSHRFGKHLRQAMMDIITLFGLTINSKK", "assay": "(§1) Compound was evaluated for its ability to inhibit carnitine palmitoyltransferase I activity in intact mitochondria from rat liver"}, "[2]": {"biological_target": "T2, Carnitine O-palmitoyltransferase 1, muscle isoform (Rattus norvegicus, UniProt Q63704)", "T2 sequence (Q63704 whole entry)": "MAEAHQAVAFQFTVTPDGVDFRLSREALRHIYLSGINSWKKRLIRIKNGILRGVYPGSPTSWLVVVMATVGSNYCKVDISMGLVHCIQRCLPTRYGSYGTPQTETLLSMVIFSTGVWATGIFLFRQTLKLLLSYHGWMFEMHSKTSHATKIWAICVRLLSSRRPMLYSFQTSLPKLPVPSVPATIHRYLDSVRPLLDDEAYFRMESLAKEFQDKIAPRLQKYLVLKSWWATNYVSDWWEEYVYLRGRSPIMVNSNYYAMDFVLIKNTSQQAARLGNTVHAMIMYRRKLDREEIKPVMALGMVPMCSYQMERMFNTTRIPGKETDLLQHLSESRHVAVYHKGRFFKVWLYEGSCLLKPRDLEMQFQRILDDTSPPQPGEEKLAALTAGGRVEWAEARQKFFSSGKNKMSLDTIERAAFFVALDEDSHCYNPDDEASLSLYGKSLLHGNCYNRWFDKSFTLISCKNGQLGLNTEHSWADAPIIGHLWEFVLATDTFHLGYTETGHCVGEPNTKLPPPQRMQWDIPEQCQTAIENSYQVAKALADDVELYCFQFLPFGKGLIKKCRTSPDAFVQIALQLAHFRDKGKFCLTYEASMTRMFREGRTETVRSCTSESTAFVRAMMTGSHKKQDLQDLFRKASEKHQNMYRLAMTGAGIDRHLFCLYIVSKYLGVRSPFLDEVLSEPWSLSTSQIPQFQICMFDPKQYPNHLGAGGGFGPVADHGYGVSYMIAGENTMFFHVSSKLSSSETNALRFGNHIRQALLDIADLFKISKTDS", "assay": "(§2) Compound was evaluated for its ability to inhibit carnitine palmitoyltransferase I activity in intact mitochondria from rat heart"}, "[3]": {"compound": "CCCCCCCCCCCCCCC[C@@]1(O)C[N+](C)(C)C[C@@H](CC(=O)[O-])O1", "assay": "as §2"}, "[4]": {"compound": "CCCCCCCCCCCCCCC[C@@]1(O)C[N+](C)(C)C[C@@H](CC(=O)[O-])O1", "assay": "as §1"}}}
{"molecule": "CCCCCCCCCCCCCCC[C@@]1(O)C[N+](C)(C)C[C@@H](CC(=O)[O-])O1", "note": "[HEMIACYLCARNITINIUM]", "values": [{"measurement": "Ki", "setting": "[1]", "value": 4.2, "unit": "µM"}, {"measurement": "Ki", "setting": "[2]", "value": 2.8, "unit": "µM"}]}
{"molecule": "Carnitine O-palmitoyltransferase 1, muscle isoform (Rattus norvegicus), Q63704 (protein) MAEAHQAVAFQFTVTPDGVDFRLSREALRHIYLSGINSWKKRLIRIKNGILRGVYPGSPTSWLVVVMATVGSNYCKVDISMGLVHCIQRCLPTRYGSYGTPQTETLLSMVIFSTGVWATGIFLFRQTLKLLLSYHGWMFEMHSKTSHATKIWAICVRLLSSRRPMLYSFQTSLPKLPVPSVPATIHRYLDSVRPLLDDEAYFRMESLAKEFQDKIAPRLQKYLVLKSWWATNYVSDWWEEYVYLRGRSPIMVNSNYYAMDFVLIKNTSQQAARLGNTVHAMIMYRRKLDREEIKPVMALGMVPMCSYQMERMFNTTRIPGKETDLLQHLSESRHVAVYHKGRFFKVWLYEGSCLLKPRDLEMQFQRILDDTSPPQPGEEKLAALTAGGRVEWAEARQKFFSSGKNKMSLDTIERAAFFVALDEDSHCYNPDDEASLSLYGKSLLHGNCYNRWFDKSFTLISCKNGQLGLNTEHSWADAPIIGHLWEFVLATDTFHLGYTETGHCVGEPNTKLPPPQRMQWDIPEQCQTAIENSYQVAKALADDVELYCFQFLPFGKGLIKKCRTSPDAFVQIALQLAHFRDKGKFCLTYEASMTRMFREGRTETVRSCTSESTAFVRAMMTGSHKKQDLQDLFRKASEKHQNMYRLAMTGAGIDRHLFCLYIVSKYLGVRSPFLDEVLSEPWSLSTSQIPQFQICMFDPKQYPNHLGAGGGFGPVADHGYGVSYMIAGENTMFFHVSSKLSSSETNALRFGNHIRQALLDIADLFKISKTDS", "values": [{"measurement": "Km", "setting": "[3]", "value": 500, "unit": "µM"}]}
{"molecule": "Carnitine O-palmitoyltransferase 1, liver isoform (Rattus norvegicus), P32198 (protein) MAEAHQAVAFQFTVTPDGIDLRLSHEALKQICLSGLHSWKKKFIRFKNGIITGVFPANPSSWLIVVVGVISSMHAKVDPSLGMIAKISRTLDTTGRMSSQTKNIVSGVLFGTGLWVAVIMTMRYSLKVLLSYHGWMFAEHGKMSRSTKIWMAMVKVLSGRKPMLYSFQTSLPRLPVPAVKDTVSRYLESVRPLMKEEDFQRMTALAQDFAVNLGPKLQWYLKLKSWWATNYVSDWWEEYIYLRGRGPLMVNSNYYAMEMLYITPTHIQAARAGNTIHAILLYRRTLDREELKPIRLLGSTIPLCSAQWERLFNTSRIPGEETDTIQHIKDSRHIVVYHRGRYFKVWLYHDGRLLRPRELEQQMQQILDDPSEPQPGEAKLAALTAADRVPWAKCRQTYFARGKNKQSLDAVEKAAFFVTLDESEQGYREEDPEASIDSYAKSLLHGRCFDRWFDKSITFVVFKNSKIGINAEHSWADAPVVGHLWEYVMATDVFQLGYSEDGHCKGDTNPNIPKPTRLQWDIPGECQEVIDASLSSASLLANDVDLHSFPFDSFGKGLIKKCRTSPDAFIQLALQLAHYKDMGKFCLTYEASMTRLFREGRTETVRSCTMESCNFVQAMMDPKSTAEQRLKLFKIACEKHQHLYRLAMTGAGIDRHLFCLYVVSKYLAVDSPFLKEVLSEPWRLSTSQTPQQQVELFDFEKNPDYVSCGGGFGPVADDGYGVSYIIVGENFIHFHISSKFSSPETDSHRFGKHLRQAMMDIITLFGLTINSKK", "values": [{"measurement": "Km", "setting": "[4]", "value": 350, "unit": "µM"}]}
